From patent US12187709B2 (Genentech, Inc., priority 2021, dated 2025)

How the values were obtained:
[1] = target: Human Cbl-b (residues 40-426) (Homo sapiens (Human), UniProt Q13191); assay: Cbl-b SPR assay; assay type: binding; settings: for Fold of selectivity: C-cbl SPR Kd vs Cbl-b SPR Kd; for Kd: SPR, 20° C.
Procedure, shortened: (§1)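 Binding is measured by surface plasmon resonance against both isoforms, with double referencing and 1:1 kinetic fitting. Dissociation time is tuned to 4-5 half-lives.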

c-Cbl (residues 47-435) = c-Cbl (residues 47-435) (Homo sapiens (Human), UniProt P22681); assay: c-Cbl SPR assay; assay type: binding; settings: 20° C.
Sequence of c-Cbl (residues 47-435) (P22681 47-435): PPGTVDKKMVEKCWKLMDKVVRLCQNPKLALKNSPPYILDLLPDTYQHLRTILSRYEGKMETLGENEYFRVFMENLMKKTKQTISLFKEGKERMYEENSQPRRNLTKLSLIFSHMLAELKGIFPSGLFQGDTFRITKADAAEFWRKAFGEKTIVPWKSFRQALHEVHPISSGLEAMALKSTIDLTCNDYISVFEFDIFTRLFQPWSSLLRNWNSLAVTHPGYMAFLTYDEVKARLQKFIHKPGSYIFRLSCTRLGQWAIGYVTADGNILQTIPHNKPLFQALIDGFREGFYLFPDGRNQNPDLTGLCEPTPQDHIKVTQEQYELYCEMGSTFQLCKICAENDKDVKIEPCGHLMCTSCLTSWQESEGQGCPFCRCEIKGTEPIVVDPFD
Procedure, shortened: as §1

c-Cbl = c-Cbl (Homo sapiens (Human), UniProt P22681); assay: C-Cbl LCK Ub TR-FRET assay (C-cbl Lck HTRF); assay type: biochemical
Sequence of c-Cbl (P22681 47-435): as above
Procedure, shortened: (§2)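 After the ubiquitination reaction, detection mixture was added and plates incubated 20 min at room temperature before reading. IC50 values were calculated with wells lacking LCK as the low control and DMSO as the high control.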

Cbl-b = Cbl-b (Homo sapiens (Human), UniProt Q13191); assay: Cbl-b LCK Ub TR-FRET assay (Cbl-b Lck HTRF); assay type: biochemical; settings: for IC50: Cbl-b LCK Ub TR-FRET; for fold-selectivity (Cbl-b over C-cbl): ratio C-cbl Lck HTRF IC50 / Cbl-b Lck HTRF IC50
Sequence of Cbl-b (Q13191 40-426): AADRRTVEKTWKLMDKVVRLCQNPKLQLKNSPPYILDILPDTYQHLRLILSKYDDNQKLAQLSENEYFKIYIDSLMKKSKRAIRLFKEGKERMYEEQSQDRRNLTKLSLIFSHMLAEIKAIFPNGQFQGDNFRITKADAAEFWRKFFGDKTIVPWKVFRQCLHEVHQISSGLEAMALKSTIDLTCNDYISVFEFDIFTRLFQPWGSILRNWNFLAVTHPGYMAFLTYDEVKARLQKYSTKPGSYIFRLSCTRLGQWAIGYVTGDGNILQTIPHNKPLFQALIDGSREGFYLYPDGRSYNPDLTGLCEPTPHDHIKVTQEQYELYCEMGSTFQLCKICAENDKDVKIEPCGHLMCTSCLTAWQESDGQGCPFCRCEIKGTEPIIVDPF
Procedure, shortened: as §2

Sequence of Human Cbl-b (residues 40-426) (Q13191 40-426): as above

With Cn1cnnc1[C@@H](c1cccc(N2Cc3c(cc(CNC4(C)CCC4)cc3C(F)(F)F)C2=O)c1)[C@H]1C[C@H](C)C1 (single isomer, unassigned) [Compound 378] the Fold of selectivity [1] was 14×, the Kd [1] was 6.9 nM and the Kd (c-Cbl (residues 47-435)) was 96 nM. For the same compound, the IC50 (c-Cbl) was 56 nM, the IC50 (Cbl-b) was 9.4 nM and the “fold-selectivity (Cbl-b over C-cbl)” value (Cbl-b) was 6.0x.

Cn1cnnc1C1(c2cccc(N3Cc4c(cc(CNC5(C)CCC5)cc4C(F)(F)F)C3=O)c2)CC(=O)C1 [Compound 19, 2-(3-(1-(4-methyl-4H-1,2,4-triazol-3-yl)-3-oxocyclobutyl)phenyl)-6-(((1-methylcyclobutyl)-amino)methyl)-4-(trifluoromethyl)isoindolin-1-one] was tested, and the Fold of selectivity [1] was 5.0×, the Kd [1] was 40 nM and the Kd (c-Cbl (residues 47-435)) was 200 nM. The IC50 (c-Cbl) was 176 nM, the IC50 (Cbl-b) was 88 nM and the “fold-selectivity (Cbl-b over C-cbl)” value (Cbl-b) was “(2.0x)”.
